Columns and labels:
[1] = tested on: CT-DNA; assay: Ethidium bromide exchange (fluorescence quenching) study; type: binding, calf
Method: Fig. S13. The emission spectra of EB-bound (a) DNA solutions in the absence and presence of increasing concentrations of 2, 3, and 4 25 μM (b), 50 μM (c), and 75 μM (d). [EB]=10.0 μM (e), [DNA] 50.0 μM. […] (µM) for determining KSV.

[2] = tested on: S. aureus ATCC29213; assay: Disc diffusion assay; type: cell-based, Staphylococcus aureus
Method: (§1) Therefore, the pathogen bacterial flora and the opportunistic agents may be taken into consideration both in the management of cancer patients and in individual susceptibility to cancer. Indeed, dual acting factors with antimicrobial and antiproliferative potentials can result in improved therapeutic efficacy for cancer cell patients or reduced cancer predisposition. […]. In this study, 10 microbial cultures of this part, belonging to ten types of bacterial were used. The culture was grown in Mueller–Hinton Broth (Merck) for all the bacterial strains at 36 °C. Antimicrobial test was carried out by using disc-diffusion assay utilizing 100 µL of suspension with 10^8 CFU/mL of bacteria and 10^6 CFU/mL of yeast spread on Nutrient Agar and Potato Dextrose Agar, respectively. Also, the blank disc (Oxoid = 6 mm in diameter) was impregnated with 20 µL of each substance (105 µg/disc) and placed on the inoculated agar. Negative controls ([…]) were prepared using the same solvent (water) employed to dissolve each substance. […]. The inoculated plate was incubated at 36 °C for clinical bacterial strains. Antimicrobial activities were evaluated by obtaining the zone of inhibitory effect against the test organisms.

[3] = tested on: C6, HeLa, and HT29 cells; assay: DNA laddering (internucleosomal DNA fragmentation); type: cell-based
Method: Here, appearances of apoptotic morphology and DNA fragmentation may be a result of the activation of the extrinsic apoptotic pathways, including Ca^2+ dependent endonucleases. Apoptosis assay is determined by controlling cell death which included cleavage of DNA molecule into regular fragments. In this part, we observed that our molecules could act through containing apoptosis on some cells. More studies were conducted to obtain the antiproliferative and apoptotic potentials of Ag molecules which are consistent with this work[70],[75],[75],[79],[80].
By growing C6, HeLa, and HT29 cells were incubated with the molecules at 37 °C for overnight, DNA molecule was isolated in this part, and DNA fragmentation was visualized by agarose gel electrophoresis. […] A-HT29: 1, DNA standard; 2, HT29 Control; 3, HT29 + 2; 4, HT29 + 3; 5, HT29 + 4. B-C6: 1, DNA standard; 2, C6 + 2; 3, C6 + 3; 4, C6 + 4; 5, C6 Control. C-HeLa: 1, DNA standard; 2, HeLa + 2; 3, HeLa + 3; 4, HeLa + 4; 5, HeLa Control.
. Treated cell was harvested using a plastic scraper, and these fixed with 70 % ethanol, and also incubated for 48 hours. The ethanol amount was removed by centrifugation and air drying. The cell pellet was resuspended in 55 μL phosphate-citrate buffer (consisting of 192 parts of 0.2 M Na2HPO4 and 8 parts of 0.1 M citric acid, pH 7.8), and incubated at 37°C for 30 min in a shaker incubator. A 45 μL of supernatant was transferred to a microsantrifuge tube, mixed with 5 μL 0.25% Tween20 solution and 5 μL RNase A enzyme solution and also incubated for 30 min in a shaker incubator. […]

[4] = tested on: KpnI and BamHI; assay: Inhibition of restriction endonucleases activity (pTOLT plasmid digestion); type: biochemical
Method: Fig. S12. […] Following 4 h 37°C digestion of the 14µL with 10U KpnI and BamHI, these digestion products were resolved with 1.5% agarose gel containing ethidium bromide. Lane 1: enzyme + DNA + complex 4, Lane 2: enzyme + DNA + complex 3, Lane 3: enzyme + DNA + complex 2, Lane 4: Positive control (enzyme + DNA), Lane 5: Negative control (plasmid DNA + water); lane 6: DNA marker (1Kb).

[5] = tested on: HeLa cells; assay: Cell migration assay; type: cell-based
Description: Ag(I) compounds at 30% maximal inhibitory concentration (IC30) managed to inhibit tumor cell migration with low cytotoxicity (data not shown). In addition, this cytotoxic ability of Ag(I) compounds at 20% maximal inhibitory concentration (IC20) allowed the suppression of cell migration without damaging the cell membrane at non-toxic concentrations (data not shown). […] While untreated HeLa cells filled 100% of the gap, compounds 2, 3, and 4 managed to spread to 9%, %11, 15% of the gap, respectively (Figure S16; Supplementary Material, Day 2). In addition, the media with Ag(I) compounds were replaced with fresh media following the 72-h incubation, but the HeLa cells could not fill the gap (data not shown). […]. The result was consistent with that of the other studies on Ag(I) complexes containing different ligands[73],[74],[78],[80],[81],[83]–[87].
The migration feature of the 2, 3 and 4 was monitored using the cell migration method. Briefly, an equal number of HeLa cells (3.5 × 10^4 HeLa cells) were seeded into the two reservoirs separated by a 500 µm thick wall and allowed to grow to 90–95 % confluence. […]. The closure of the gap by the cells was photographed 0, 1 and 2 days after incubation by using a phase contrast inverted microscope.
Fig. S16. Effect of 2, 3 and 4 on the migration of HeLa cell line. […]

[6] = tested on: Vero; assay: BrdU Cell Proliferation Assay (BCPA); type: cell-based
Description: (§2) The antiproliferative activities of Ag(I) molecules and the starting molecules of the parent molecules, N-bishydeten and [Ag(CN)2]^− compound, on cells, were monitored utilizing by the BrdU Cell Proliferation Assay (BCPA) (Fig. 6).
(§3) The antiproliferative activity of the 2, 3, 4, [Ag(CN)2]^− and 5FU against various cell lines (HeLa ATCC CCL-2, C6 cells ATCC CCL-107, HT29 ATCC HTB-38, and Vero ATCC CCL-81) were preserved and maintained in Dulbecco’s modified eagle’s medium, supplemented with %2 antibiotic (Streptomycin-Penicillin) solution and 10% fetal bovine serum.
(§4) The cell suspension including 5×10^3 cells in 100 µL was supplied into the well cell plates (96-well cell). The therapies of these cells with 2, 3, 4 and [Ag(CN)2]^− in DMSO (max 0.1% DMSO) and 5-Florouracil (5 FU) molecule in DMSO (max 0.1% DMSO) separately at concentration 0.25, 0.50, 1.00, 1.50, 2.00, 2.50, 3.75, and 5.00 µg/mL were carried out. The last volume was adapted to 200 µL by mixture and DMEM and also incubated for 24 h at 37°C with 5% CO2. The antiproliferative activities of the 2, 3, 4 and [Ag(CN)2]^− were determined with using BrdU Cell proliferation ELISA Kit conforming to manufacturer’s assay.
(§5) IC50 values the concentration of a factor which required for other method of in vitro.

[7] = tested on: C6; assay: BrdU Cell Proliferation Assay (BCPA); type: cell-based
Description: as §2, §3, §4, §5

[8] = tested on: HeLa; assay: BrdU Cell Proliferation Assay (BCPA); type: cell-based
Description: as §2, §3, §4, §5

[9] = tested on: P. aeruginosa ATCC9027; assay: Disc diffusion assay; type: cell-based, Pseudomonas Aureginosa
Method: as §1

[Cu(N-bishydeten)Ag3(CN)5] [Complex 2]
KSV (Stern–Volmer quenching constant, EB-DNA) [1]: 5.0 ± 0.32 × 10^3 M^−1
inhibition zones, S. aureus ATCC29213 [2]: 37 ± 1.0 mm
DNA fragmentation (DNA laddering) [3]: induced the organization of DNA fragmentation
effect on restriction endonucleases activity (KpnI and BamHI digestion of pTOLT plasmid DNA) [4]: caused the formation of two DNA bands (Lane 3) corresponding to the supercoiled and nicked DNA
part of the gap filled by HeLa cells (migration) [5]: 9%
IC50 [6]: 2810 ± 320 nM
IC50 [7]: 950 ± 90 nM
IC50 [8]: 3640 ± 420 nM
inhibition zones, P. aeruginosa ATCC9027 [9]: 30 ± 1.0 mm

[Zn(N-bishydeten)Ag3(CN)5] [Complex 3]
KSV (Stern–Volmer quenching constant, EB-DNA) [1]: 13.7 ± 0.41 × 10^3 M^−1
inhibition zones, S. aureus ATCC29213 [2]: 25 ± 0.58 mm
DNA fragmentation (DNA laddering) [3]: induced the organization of DNA fragmentation
effect on restriction endonucleases activity (KpnI and BamHI digestion of pTOLT plasmid DNA) [4]: failed to inhibit the restriction endonucleases activity
part of the gap filled by HeLa cells (migration) [5]: 11%
IC50 [6]: 3060 ± 350 nM
IC50 [7]: 3340 ± 340 nM
IC50 [8]: 3190 ± 370 nM
inhibition zones, P. aeruginosa ATCC9027 [9]: 30 ± 1.0 mm

[Cd(N-bishydeten)]4[Ag(CN)2]8[Ag(CN)]2 [Complex 4]
KSV (Stern–Volmer quenching constant, EB-DNA) [1]: 1.1 ± 0.12 × 10^3 M^−1
inhibition zones, S. aureus ATCC29213 [2]: 30 ± 1.0 mm
DNA fragmentation (DNA laddering) [3]: induced the organization of DNA fragmentation
effect on restriction endonucleases activity (KpnI and BamHI digestion of pTOLT plasmid DNA) [4]: failed to inhibit the restriction endonucleases activity
part of the gap filled by HeLa cells (migration) [5]: 15%
IC50 [6]: 630 ± 90 nM
IC50 [7]: 600 ± 90 nM
IC50 [8]: 610 ± 90 nM
inhibition zones, P. aeruginosa ATCC9027 [9]: 30 ± 0.58 mm

Source: article PMC7385626 (Scientific Reports, 2020)
